Laboratory results taken from article PMC9965221, “Antiviral Mechanism of Virucidal Sialic Acid Modified Cyclodextrin” (Pharmaceutics, 2023).

Molecular target: T1, recombinant HA (A/California/04/2009, Met1-Gln549) (Influenza A virus (A/California/04/2009(H1N1)), UniProt C3W5S1)
T1 construct: Met1-Gln549, His-tagged recombinant, immobilised on anti-His probes
Assay type: binding

T1 sequence (C3W5S1 entry or part of it, added parts left off): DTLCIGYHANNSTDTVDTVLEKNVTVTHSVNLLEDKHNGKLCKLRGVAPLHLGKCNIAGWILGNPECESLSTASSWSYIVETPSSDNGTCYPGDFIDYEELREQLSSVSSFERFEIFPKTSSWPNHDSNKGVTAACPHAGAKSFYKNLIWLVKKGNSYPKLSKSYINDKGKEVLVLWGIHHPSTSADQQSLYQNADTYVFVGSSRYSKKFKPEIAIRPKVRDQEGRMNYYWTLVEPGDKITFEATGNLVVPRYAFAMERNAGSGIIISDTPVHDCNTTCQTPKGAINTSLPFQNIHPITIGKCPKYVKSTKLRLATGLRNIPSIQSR

In the case of `CC(=O)N[C@H]1[C@H]([C@H](O)[C@H](O)CO)O[C@@](OC[C@H]2O[C@@H](O[C@H]3[C@H](O)[C@@H](NC(C)=O)C(O)O[C@@H]3CO)[C@H](O)[C@@H](O)[C@H]2O)(C(=O)O)C[C@@H]1O` (stereo partly shown) [6′SLN], the Kd is reported as greater than 5 mM.
